According to ChEMBL document CHEMBL1201862, “PubChem BioAssay data set” (2004):
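Tested at 5 concentrations; 48 h exposure; 96-well plates; endpoints linearly interpolated, else capped at highest concentration. GI50: concentration for 50% inhibition of growth.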 Active and inactive are the calls of the source. Cut-off read from the data, not from the text of the source: active = GI50 up to about 1.1 µM and inactive = higher.

Legend:
Assay in all cases: inhibition of tumour cell growth, NCI panel, 48 h
786-0 = system: 786-0
BT-549 = system: BT-549
CAKI-1 = system: CAKI-1
COLO 205 = system: COLO 205
DU-145 = system: DU-145
HCC 2998 = system: HCC 2998
KM12 = system: KM12
MCF7 = system: MCF7
MDA-N = system: MDA-N
MOLT-4 = system: MOLT-4
Malme-3M = system: Malme-3M
OVCAR-5 = system: OVCAR-5
PC-3 = system: PC-3
SF-268 = system: SF-268
SK-MEL-5 = system: SK-MEL-5
SNB-75 = system: SNB-75
UACC-257 = system: UACC-257
UACC-62 = system: UACC-62
HL-60 = system: HL-60

Measured: GI50

O=C1CC(=O)NC(NN2C(=O)CSC2c2ccccc2)=N1 (stereo unspecified)
inactive: 786-0 > 100 µM | BT-549 > 100 µM | CAKI-1 > 100 µM | COLO 205 > 100 µM | DU-145 > 100 µM | HCC 2998 > 100 µM | KM12 > 100 µM | MCF7 > 100 µM | MDA-N > 100 µM | MOLT-4 > 100 µM | Malme-3M > 100 µM | OVCAR-5 > 100 µM | PC-3 > 100 µM | SF-268 > 100 µM | SK-MEL-5 > 100 µM | SNB-75 30.9 µM | UACC-257 > 100 µM | UACC-62 > 100 µM

O=[N+]([O-])C(/C(Cl)=C(/Cl)N1CCOCC1)=C1\NCCO1
inactive: 786-0 > 100 µM | BT-549 > 100 µM | CAKI-1 > 100 µM | COLO 205 > 100 µM | DU-145 > 100 µM | HCC 2998 > 100 µM | KM12 > 100 µM | MCF7 > 100 µM | MDA-N > 100 µM | MOLT-4 > 100 µM | Malme-3M > 100 µM | OVCAR-5 > 100 µM | PC-3 > 100 µM | SF-268 > 100 µM | SNB-75 > 100 µM | UACC-257 > 100 µM | UACC-62 > 100 µM

Cc1cc2ccccc2c[n+]1CC(O)C[n+]1cc2ccccc2cc1C
inactive: 786-0 > 100 µM | BT-549 > 100 µM | CAKI-1 > 100 µM | COLO 205 > 100 µM | DU-145 > 100 µM | HCC 2998 > 100 µM | KM12 > 100 µM | MCF7 > 100 µM | MDA-N > 100 µM | MOLT-4 > 100 µM | Malme-3M > 100 µM | OVCAR-5 > 100 µM | PC-3 > 100 µM | SF-268 > 100 µM | SK-MEL-5 > 100 µM | SNB-75 > 100 µM | UACC-257 > 100 µM | UACC-62 > 100 µM

CCSC1=N/C(=C\c2ccco2)C(Cl)=N1
inactive: 786-0 > 100 µM | BT-549 > 100 µM | CAKI-1 > 100 µM | COLO 205 > 100 µM | DU-145 > 100 µM | HL-60 > 100 µM | KM12 > 100 µM | MCF7 > 100 µM | MDA-N > 100 µM | MOLT-4 > 100 µM | OVCAR-5 > 100 µM | PC-3 > 100 µM | SF-268 > 100 µM | SK-MEL-5 > 100 µM | SNB-75 > 100 µM | UACC-257 > 100 µM | UACC-62 > 100 µM

COc1cc2c(cc1OCc1ccccc1)NC(=O)[C@@H]1CCCN1C2=O
inactive: 786-0 > 100 µM | BT-549 > 100 µM | CAKI-1 > 100 µM | COLO 205 > 100 µM | DU-145 > 100 µM | HCC 2998 > 100 µM | KM12 > 100 µM | MCF7 > 100 µM | MDA-N > 100 µM | MOLT-4 > 100 µM | Malme-3M > 100 µM | OVCAR-5 > 100 µM | PC-3 > 100 µM | SF-268 > 100 µM | SK-MEL-5 > 100 µM | SNB-75 > 100 µM | UACC-257 > 100 µM | UACC-62 > 100 µM

Cc1ccc(S(=O)(=O)N/N=C2/C3C(CC2(C)C)C2(C)CCCC3(C)C2O)cc1 (stereo unspecified)
inactive: 786-0 21.3 µM | BT-549 14.3 µM | CAKI-1 39.3 µM | COLO 205 16 µM | DU-145 39.1 µM | HL-60 26.1 µM | KM12 18.3 µM | MCF7 17.5 µM | MDA-N 20.1 µM | MOLT-4 12.9 µM | Malme-3M 24 µM | OVCAR-5 > 10 µM | PC-3 9.59 µM | SF-268 30.5 µM | SK-MEL-5 15.5 µM | SNB-75 17.7 µM | UACC-257 16.8 µM | UACC-62 14.8 µM

Cc1c[nH]c(C(=O)O)c1-c1cccn1-c1ccc(Cl)cc1[N+](=O)[O-]
inactive: 786-0 > 100 µM | BT-549 > 100 µM | CAKI-1 > 100 µM | COLO 205 > 100 µM | DU-145 > 100 µM | HCC 2998 > 100 µM | KM12 76.6 µM | MCF7 69.7 µM | MDA-N > 100 µM | MOLT-4 63.1 µM | OVCAR-5 > 100 µM | PC-3 49.9 µM | SF-268 > 100 µM | SK-MEL-5 > 100 µM | SNB-75 > 100 µM | UACC-257 > 100 µM | UACC-62 > 100 µM

COc1ccc(/C=C/c2cnc3ccccc3n2)cc1OC
inactive: 786-0 53.6 µM | BT-549 57.1 µM | CAKI-1 74.3 µM | COLO 205 72.1 µM | DU-145 > 100 µM | HL-60 47.2 µM | KM12 47.8 µM | MCF7 54.5 µM | MDA-N 59 µM | MOLT-4 > 100 µM | Malme-3M 38.2 µM | OVCAR-5 > 100 µM | PC-3 33.1 µM | SF-268 > 100 µM | SK-MEL-5 49.3 µM | SNB-75 63.8 µM | UACC-257 > 100 µM | UACC-62 77.3 µM
